The values below come from patent US10028992B2, “Methods of treating muscular dystrophy” (BOARD OF REGENTS OF THE NEVADA SYSTEM OF HIGHER EDUCATION …, priority 2012, dated 2018).

This test has as its system α7 integrin promoter. The test can be described thus: muscle cell-based assay: α7βgal+/− myoblasts/myotubes, LacZ reporter, β-galactosidase cleavage of FDG. The arrangement: species or system mouse. Particulars: Myotubes; for Results in a α7+/− β-galactosidase assay, Myotubes, 0.5 uM: compound at 0.5 uM; for Results in a α7+/− β-galactosidase assay, Myotubes, 1 uM: compound at 1 uM; for Results in a α7+/− β-galactosidase assay, Myotubes, 5 uM: compound at 5 uM; for Results in a α7+/− β-galactosidase assay, Myotubes, 10 uM: compound at 10 uM; for Results in a α7+/− β-galactosidase assay, Myotubes, 20 uM: compound at 20 uM; for Results in a α7+/− β-galactosidase assay, Myotubes, 40 uM: compound at 40 uM. The essentials:
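Primary α7βgal+/− mouse myoblasts (LacZ knocked into α7 integrin exon 1, promoter retained), differentiated; promoter activity read as β-galactosidase conversion of non-fluorescent FDG to fluorescein. Hits followed by dose-response, western analysis and myostatin counterscreen.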

Take `CC(C)(C)NC(=O)NC(=O)CN1CCN(Cc2ccccc2)CC1` [drawing 424]: the “Results in a α7+/− β-galactosidase assay, Myotubes, 0.5 uM” value (“Results … 0.5 uM” for short) amounted to 0.003071; the “Results in a α7+/− β-galactosidase assay, Myotubes, 1 uM” value (from here on “Results … 1 uM”) is reported as −0.04272; the “Results in a α7+/− β-galactosidase assay, Myotubes, 5 uM” value (“Results … Myotubes, 5 uM” below) is listed as 0.04658; the “Results in a α7+/− β-galactosidase assay, Myotubes, 10 uM” value (shortened to “Results … 10 uM”) was found to be 0.4408. In addition, the “Results in a α7+/− β-galactosidase assay, Myotubes, 20 uM” value (from here on “Results … 20 uM”) is given as −0.2165 and the “Results in a α7+/− β-galactosidase assay, Myotubes, 40 uM” value (“Results … 40 uM” for short) is 0.07828.

For the compound `COc1cc(C=O)ccc1OCC(=O)Nc1ccc2c(c1)OCO2` [drawing 425], the “Results … 0.5 uM” value was −0.1155; the “Results … 1 uM” value is listed as −0.1633; the “Results … Myotubes, 5 uM” value amounted to 0.1998; the “Results … 10 uM” value came to 0.4511. Further, the “Results … 20 uM” value was −0.2886 and the “Results … 40 uM” value was determined as 0.003215.

For the compound `Cc1ccccc1NC(=O)c1ccc2c(O)c(Sc3ccccc3)c(=O)[nH]c2c1` [drawing 426], the “Results … 0.5 uM” value is −0.06746; the “Results … 1 uM” value is listed as −0.07688; the “Results … Myotubes, 5 uM” value was −0.09733; the “Results … 10 uM” value turned out to be 0.01498. The “Results … 20 uM” value was −0.07909 and the “Results … 40 uM” value is listed as −0.1428.

As for `Oc1nc(SCc2ccc(Cl)cc2)nc2ccsc12` [drawing 427], the “Results … 0.5 uM” value is on record as 0.03102; the “Results … 1 uM” value is recorded as −0.01338; the “Results … Myotubes, 5 uM” value is −0.1454; the “Results … 10 uM” value amounted to 0.05532. The “Results … 20 uM” value is recorded as −0.03447 and the “Results … 40 uM” value is −0.1688.

For `CCn1c(=O)c2cc(C(=O)N(C)c3cc(C)ccc3OC)sc2c2ccccc21` [drawing 428], the “Results … 0.5 uM” value was −0.1274; the “Results … 1 uM” value is −0.01854; the “Results … Myotubes, 5 uM” value is reported as −0.1965; the “Results … 10 uM” value is −0.1001. The “Results … 20 uM” value is given as −0.31 and the “Results … 40 uM” value is on record as −0.8047.

Consider `CCOC(=O)C1=C(NC(=O)c2ccc(OC)c(S(=O)(=O)N3CCCCC3C)c2)Nc2ccccc2N=C1CC` (stereo not drawn) [drawing 429], for which the “Results … 0.5 uM” value is listed as −0.08852; the “Results … 1 uM” value was found to be 0.05126; the “Results … Myotubes, 5 uM” value is −0.2482; the “Results … 10 uM” value was −0.1853. The “Results … 20 uM” value is −0.1051 and the “Results … 40 uM” value is listed as −0.1944.

For `O=C(NCc1ccccc1)C(c1c(F)cccc1Cl)N(C(=O)c1csnn1)C1CC1` (stereo not drawn) [drawing 430], the “Results … 0.5 uM” value amounted to 0.2226; the “Results … 1 uM” value was −0.02073; the “Results … Myotubes, 5 uM” value is listed as −0.2107; the “Results … 10 uM” value is −0.07084. The “Results … 20 uM” value was −0.182 and the “Results … 40 uM” value is given as −0.2594.

Turning to `Cc1[nH]c2ccc(F)cc2c1CCN(Cc1ccco1)/C(S)=N/C(C)(C)C` [drawing 431], the “Results … 0.5 uM” value is −0.02866; the “Results … 1 uM” value is on record as −0.1703; the “Results … Myotubes, 5 uM” value is −0.1851; the “Results … 10 uM” value is recorded as −0.06955. Further, the “Results … 20 uM” value is −0.543 and the “Results … 40 uM” value is recorded as −0.807.

As for `c1ccc(-c2cc(-c3nc4ccccc4[nH]3)c3ccccc3n2)cc1` [drawing 432], the “Results … 0.5 uM” value was −0.06598; the “Results … 1 uM” value is recorded as −0.05419; the “Results … Myotubes, 5 uM” value is on record as −0.2722; the “Results … 10 uM” value is −0.06437. Moreover, the “Results … 20 uM” value is −0.3184 and the “Results … 40 uM” value was −0.5085.

Consider `CCC(C)n1nc(O)cc1N` (stereo not drawn) [drawing 433], for which the “Results … 0.5 uM” value is given as 0.1351; the “Results … 1 uM” value is −0.05991; the “Results … Myotubes, 5 uM” value is reported as −0.1063; the “Results … 10 uM” value is reported as −0.1016. Moreover, the “Results … 20 uM” value is reported as −0.1631 and the “Results … 40 uM” value was −0.144.

Take `Cc1ccc(C(=O)N2CCN(S(=O)(=O)N3CCOCC3)CC2)cc1` [drawing 434]: the “Results … 0.5 uM” value is listed as −0.01141; the “Results … 1 uM” value is given as −0.169; the “Results … Myotubes, 5 uM” value is reported as 0.007084; the “Results … 10 uM” value is 0.1108. In addition, the “Results … 20 uM” value is recorded as −0.2209 and the “Results … 40 uM” value is 0.1179.

Take `Cc1cccc(NC(=O)CN(C)C(=O)c2ccc(-c3ccc(Cl)cc3)o2)c1` [drawing 435]: the “Results … 0.5 uM” value is on record as −0.06415; the “Results … 1 uM” value was −0.0743; the “Results … Myotubes, 5 uM” value is reported as −0.09532; the “Results … 10 uM” value is listed as −0.1682. The “Results … 20 uM” value is recorded as −0.3693 and the “Results … 40 uM” value is −0.5402.

Regarding `Cc1ccccc1S(=O)(=O)N1C[C@H]2CON(C)[C@H]2C[C@H]1c1cccc(-c2ccccc2)c1` [drawing 436], the “Results … 0.5 uM” value stood at 0.01204; the “Results … 1 uM” value is 0.03174; the “Results … Myotubes, 5 uM” value is −0.2012; the “Results … 10 uM” value is on record as −0.2418. Further, the “Results … 20 uM” value is −0.3306 and the “Results … 40 uM” value is on record as −0.5892.

With `N#C/C(=C/c1ccc(N2CCOCC2)o1)C(=O)Nc1ccccc1` [drawing 437], the “Results … 0.5 uM” value was −0.01316; the “Results … 1 uM” value was determined as 0.1058; the “Results … Myotubes, 5 uM” value is given as −0.1378; the “Results … 10 uM” value is −0.06524. Besides, the “Results … 20 uM” value turned out to be 0.007978 and the “Results … 40 uM” value is reported as −0.03236.

Turning to `CCOc1ccccc1Nc1cc2n(c(=O)n1)CCc1cc(OC)c(OC)cc1-2` [drawing 438], the “Results … 0.5 uM” value is given as 0.06921; the “Results … 1 uM” value is 0.1295; the “Results … Myotubes, 5 uM” value was −0.255; the “Results … 10 uM” value was −0.3585. The “Results … 20 uM” value was −0.1938 and the “Results … 40 uM” value is −0.1921.

Regarding `CCOc1ccccc1NC(=O)COC(=O)CNS(=O)(=O)c1ccc(C)cc1` [drawing 440], the “Results … 0.5 uM” value was −0.09293; the “Results … 1 uM” value worked out at 0.0165; the “Results … Myotubes, 5 uM” value is recorded as −0.2547; the “Results … 10 uM” value is listed as −0.2483. Further, the “Results … 20 uM” value was −0.1393 and the “Results … 40 uM” value is listed as −0.07634.

Consider `Fc1ccc(-c2ccnc3nc(N4CCN(c5ccccc5)CC4)nn23)cc1` [drawing 441], for which the “Results … 0.5 uM” value is listed as 0.1617; the “Results … 1 uM” value amounted to 0.1989; the “Results … Myotubes, 5 uM” value is recorded as 0.08445; the “Results … 10 uM” value was found to be 0.3037. In addition, the “Results … 20 uM” value was −0.1429 and the “Results … 40 uM” value turned out to be 0.1756.

For `CCOc1cc2c3c(c1)C(C)=CC(C)(C)N3C(=O)C2=O` [drawing 442], the “Results … 0.5 uM” value worked out at 0.1339; the “Results … 1 uM” value turned out to be 0.05498; the “Results … Myotubes, 5 uM” value was −0.2641; the “Results … 10 uM” value is −0.2882. The “Results … 20 uM” value is on record as −0.3067 and the “Results … 40 uM” value is −0.3705.

`COc1ccc2c(c1)/C(=C\c1cccc(/C=C3/C(=O)Nc4ccc(OC)cc43)n1)C(=O)N2` [drawing 443]: the “Results … 0.5 uM” value was −0.1407; the “Results … 1 uM” value is recorded as −0.2351; the “Results … Myotubes, 5 uM” value was −0.5201; the “Results … 10 uM” value is listed as −0.5078. In addition, the “Results … 20 uM” value was −0.5433 and the “Results … 40 uM” value is −0.6161.

As to `C/C(=N\NC(=O)c1cc(C)oc1C)c1ccc2ccccc2c1` [drawing 444], the “Results … 0.5 uM” value is −0.05394; the “Results … 1 uM” value is −0.1247; the “Results … Myotubes, 5 uM” value is 0.2514; the “Results … 10 uM” value was −0.05957. In addition, the “Results … 20 uM” value was −0.1231 and the “Results … 40 uM” value is reported as −0.2807.
